Experimental data as given in ChEMBL document CHEMBL1151570, “Preparation and Properties of a fibrinogen receptor antagonist containing the Arg-Gly-Asp sequence and nitroxide radicals” (Bioorg Med Chem Lett, 1993).

What was measured:
Homo sapiens = species on record: Homo sapiens; test: Compound was evaluated for in vitro inhibition of ADP-induced aggregation of human platelet rich plasma; format: functional
[1] = target: Integrin alpha-IIb/beta-3 (Homo sapiens, UniProt P05106+P08514); test: Dissociation constant for platelet glycoprotein alphaIIb-beta3 integrin from human platelets
Integrin alpha-IIb/beta-3, sequence (P05106 27-788 limits assumed): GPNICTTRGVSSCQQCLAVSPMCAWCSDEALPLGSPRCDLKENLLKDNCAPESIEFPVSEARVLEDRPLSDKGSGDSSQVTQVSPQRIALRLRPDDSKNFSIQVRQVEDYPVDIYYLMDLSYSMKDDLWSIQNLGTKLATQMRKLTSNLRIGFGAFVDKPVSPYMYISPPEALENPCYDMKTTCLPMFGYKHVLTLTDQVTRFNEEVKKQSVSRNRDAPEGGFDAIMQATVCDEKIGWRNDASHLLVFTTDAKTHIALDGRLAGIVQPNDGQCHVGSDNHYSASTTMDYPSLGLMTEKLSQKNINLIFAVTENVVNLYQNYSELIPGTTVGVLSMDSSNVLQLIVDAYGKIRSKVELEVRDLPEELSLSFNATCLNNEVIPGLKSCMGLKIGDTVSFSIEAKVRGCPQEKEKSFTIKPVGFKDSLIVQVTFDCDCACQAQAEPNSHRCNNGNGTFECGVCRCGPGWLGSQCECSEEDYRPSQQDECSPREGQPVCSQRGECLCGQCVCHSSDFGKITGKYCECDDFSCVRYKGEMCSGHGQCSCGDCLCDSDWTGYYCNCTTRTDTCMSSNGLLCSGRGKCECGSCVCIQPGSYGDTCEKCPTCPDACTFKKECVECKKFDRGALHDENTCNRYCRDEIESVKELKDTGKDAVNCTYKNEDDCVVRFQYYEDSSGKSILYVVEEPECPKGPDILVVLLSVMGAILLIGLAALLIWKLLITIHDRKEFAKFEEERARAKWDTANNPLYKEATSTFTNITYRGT
Integrin alpha-IIb/beta-3, sequence (P08514 32-887 limits assumed): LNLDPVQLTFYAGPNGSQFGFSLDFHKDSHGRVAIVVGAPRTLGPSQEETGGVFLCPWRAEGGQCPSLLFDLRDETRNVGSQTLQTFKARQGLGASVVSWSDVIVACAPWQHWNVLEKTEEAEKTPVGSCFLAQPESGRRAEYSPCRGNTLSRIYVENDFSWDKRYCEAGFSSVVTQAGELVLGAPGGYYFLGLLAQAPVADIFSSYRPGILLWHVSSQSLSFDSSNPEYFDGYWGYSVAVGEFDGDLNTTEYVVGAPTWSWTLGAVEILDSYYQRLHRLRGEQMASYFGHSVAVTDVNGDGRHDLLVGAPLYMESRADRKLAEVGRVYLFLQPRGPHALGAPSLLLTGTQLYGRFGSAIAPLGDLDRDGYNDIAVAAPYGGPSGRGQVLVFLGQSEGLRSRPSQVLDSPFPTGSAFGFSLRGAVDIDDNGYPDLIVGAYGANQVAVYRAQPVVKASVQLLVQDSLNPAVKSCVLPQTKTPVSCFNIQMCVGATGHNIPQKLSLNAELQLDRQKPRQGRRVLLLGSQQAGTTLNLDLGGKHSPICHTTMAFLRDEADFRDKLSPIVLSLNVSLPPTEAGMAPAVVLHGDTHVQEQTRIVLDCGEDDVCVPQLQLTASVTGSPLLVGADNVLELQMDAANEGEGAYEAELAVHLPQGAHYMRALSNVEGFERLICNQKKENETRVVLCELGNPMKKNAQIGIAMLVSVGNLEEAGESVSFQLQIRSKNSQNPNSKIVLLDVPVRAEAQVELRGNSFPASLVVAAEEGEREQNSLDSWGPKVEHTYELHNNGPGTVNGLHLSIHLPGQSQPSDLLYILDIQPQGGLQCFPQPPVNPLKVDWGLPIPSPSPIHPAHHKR
Integrin alpha-IIb/beta-3, sequence (P08514 891-1039 limits assumed): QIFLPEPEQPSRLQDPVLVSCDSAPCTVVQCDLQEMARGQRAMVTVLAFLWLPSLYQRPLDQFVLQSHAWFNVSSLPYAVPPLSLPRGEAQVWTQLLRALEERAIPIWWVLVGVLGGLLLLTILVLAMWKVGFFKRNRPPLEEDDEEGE

CC1(C)CC(NC(=O)CBr)CC(C)(C)N1[O]
IC50 (Homo sapiens): > 200 µM
Ki [1]: > 1000 µM

CN(C(=O)c1ccccc1SCC(=O)NC1CC(C)(C)N([O])C(C)(C)C1)[C@@H](CCCN=C(N)N)C(=O)NCC(=O)N[C@@H](C(=O)O)C(=O)Nc1ccccc1SCC(=O)NC1CC(C)(C)N([O])C(C)(C)C1
IC50 (Homo sapiens): 1.02 µM
Ki [1]: 0.11 µM
